The text below walks through data of US4737513A, “Novel pyrrole derivatives” (Roussel Uclaf, priority 1984, dated 1988).

Common to all, as to type: in vivo
One assay has as its system house flies. Kind of assay: Study of knock-down activity of house flies (direct atomization in a Kearns and March chamber). To be noted: for KT 50: concentration at 0.1 g/l, female house flies 4 days old, acetone (5%) and Isopar L; for knock-down power: general statement in the description. Here is the method: (1) Study of knock-down activity of house flies
The test insects were female house flies 4 days old and the test was effected by direct atomization in a Kearns and March chamber using as solvent a mixture of acetone (5%) and Isopar L (petrol solvent) (quantity of solvent used, 2 ml in one second). 50 insects were used per treatment and checks were made every minute for 10 minutes, then at 15 minutes, and the KT50 was determined by the usual methods.

The next assay deals with Aphis cracivora. As to the kind of experiment: Study of lethal effect on Aphis cracivora (contact-ingestion method). Also on record: unit not given here. To be noted: adults 7 days old; 1 hour contact with treated bean leaf; mortality checked after 24 hours. Here is the method: (3) Study of lethal effect on Aphis cracivora
Adults 7 days old were used with 10 aphis per concentration using a contact-ingestion method. The treatment was carried out with a Fisher gun on a bean leaf which was placed in a plastic Petri dish on a disc of moistened paper. 2 ml of an acetone solution of the product under test were used with 1 ml per face of the leaf and the insect infestation was carried out after drying the leaf. The insects were kept in contact with the leaf for 1 hour and then they were placed on untreated leaves.

Assay [1] has as its system cockroaches (Blatella germanica). As to the kind of experiment: Study of activity by tarsal contact on cockroaches. To be noted: male Blatella germanica; 1 hour on dried acetone deposit; mortality checked at 24 hours, 48 hours, 3 days and 5 days. The procedure:
(2) Study of activity by tarsal contact on cockroaches
The insects tested were male cockroaches (Blatella germanica) and the test was carried out by depositing an acetone solution of a certain concentration on the bottom of a Petri dish 20 cm in diameter. After this had dried, 20 male cockroaches were allowed to stay there per concentration for 1 hour, after which they were transferred to a healthy medium and their mortality was checked at 24 hours, 48 hours, 3 days and 5 days. The result was expressed as lethal concentration 50 (LC 50) in mg/m^2.

The test system of a further assay is Tetranychus urticae. As to the kind of experiment: Activity on Tetranychus urticae, test of lethal effect on adults. The settings on record: for LD 50: females on treated bean leaves, checked after 80 hours of contact. The procedure: (4) Activity on Tetranychus urticae, test of lethal effect on adults
Bean plants having two cotyledon leaves were used which were treated with a Fisher gun with an acetone solution of the product. After drying, 25 females of the acaridan Tetranychus urticae were placed on each leaf, that is 50 individuals per experimental dose per plant. The efficacity was checked after 80 hours of contact, and the LD 50 was indicated in mg/hl.

As to `C#CCn1ccc(COC(=O)[C@@H]2[C@@H](C=C(Cl)C(F)(F)F)C2(C)C)c1C#N` [Example 49, [1-(2-propynyl)-2-cyano-1H-pyrrol-3-yl]-methyl 1R, trans (E,1/3) (Z,2/3) 2,2-dimethyl-3-(2-chloro-2-trifluoromethylethenyl)-cyclopropane carboxylate], in the assay with house flies, the “KT 50” value is 11.0 min. Further, the “LD 50” value in the assay on Aphis cracivora is 6.5. Regarding `C#CCn1cc(COC(=O)[C@@H]2[C@H](/C=C(/F)C(=O)OCC)C2(C)C)c(C(F)(F)F)c1` [Example 72, [1-(2-propynyl)-3,3,3-trifluoromethyl-1H-pyrrol-4-yl]methyl (1R,cis,ΔE) 2,2-dimethyl-3-[2-fluoro-3-ethoxy-3-oxo-1-propenyl]-cyclopropane carboxylate], the “KT 50” value with house flies is given as 3.8 min. For the same compound, in assay [1], the “lethal concentration 50 (LC 50)” value came to 6.7 mg/m^2. Regarding `C#CCn1ccc(COC(=O)[C@@H]2[C@H](/C=C(/F)C(=O)OCC)C2(C)C)c1` [Example 2, [1-(2-propynyl)-1H-pyrrol-3-yl]-methyl (1R,cisΔE) 2,2-dimethyl-3-(3-ethoxy-3-oxo-2-fluoro-1-propenyl)-cyclopropane carboxylate], in the assay with house flies, the “KT 50” value turned out to be 1.6 min and the knock-down power result is “particularly remarkable”. Turning to `C#CCn1ccc(COC(=O)[C@@H]2[C@H](/C=C\C(=O)OC(C)(C)C)C2(C)C)c1` [Example 3, [1-(2-propynyl)-1H-pyrrol-3-yl]-methyl (1R,cis,ΔZ) 2,2-dimethyl-3-(3-tert-butyloxy-3-oxo-1-propenyl)-cyclopropane carboxylate], the “KT 50” value in the assay on house flies amounted to 5.8 min. Take `C#CCn1ccc(COC(=O)[C@@H]2[C@H](/C=C(\Cl)C(F)(F)F)C2(C)C)c1C#N` [Example 43, [2-cyano-1-(2-propynyl)-1H-pyrrol-3-yl]-methyl (1R,cisΔZ) 2,2-dimethyl-3-[(2-chloro-3,3,3-trifluoro)-1-propenyl]-cyclopropane carboxylate]: in the assay with house flies, the “KT 50” value turned out to be 2.9 min. Also, the “LD 50” value in the assay with Aphis cracivora is on record as 7.5; with Tetranychus urticae, 342 mg/hl. Also, the “lethal concentration 50 (LC 50)” value in assay [1] was 2.8 mg/m^2.

`C#CCn1cc(COC(=O)[C@@H]2[C@H](/C=C(/F)C(=O)OC(C)(C)C)C2(C)C)c(C(F)(F)F)c1` [Example 45, [1-(2-propynyl)-3-trifluoromethyl)-1H-pyrrol-4-yl]methyl (1R,cisΔE) 2,2-dimethyl-3-[2-fluoro-3-oxo-3-tertbutoxypropenyl]-cyclopropane carboxylate]: the “KT 50” value in the assay on house flies stood at 6.1 min. Also, the “lethal concentration 50 (LC 50)” value in assay [1] is on record as 6.4 mg/m^2. Besides, the “LD 50” value in the assay on Tetranychus urticae was 264 mg/hl. Consider `C#CCn1ccc(COC(=O)[C@@H]2[C@H](/C=C\C(=O)OC)C2(C)C)c1C#N` [Example 51, [1-(2-propynyl)-2-cyano-1H-pyrrol-3-yl]methyl (1R,cis) 2,2-dimethyl-3-(3-methoxy-3-oxo-1-propenyl)cyclopropane carboxylate], for which the “KT 50” value in the assay with house flies came out at 1.9 min. `C#CCn1ccc(COC(=O)[C@@H]2[C@H](/C=C(/F)C(=O)OC(C)(C)C)C2(C)C)c1C(F)(F)F` [Example 40, [2-trifluoromethyl-1-(2-propynyl)-1H-pyrrol-3-yl]-methyl (1R,cis,ΔE) 2,2-dimethyl-3-(3-tertbutyloxy-3-oxo-2-fluoropenyl)-cyclopropane carboxylate]: in the assay with house flies, the “KT 50” value was found to be 5.6 min and the knock-down power result was “particularly remarkable”. Further, the “acaricidal effect on Tetranychus urticae” value with Tetranychus urticae (conclusion of the test) is listed as “remarkable acaricidal effect”. Besides, the “LD 50” value in the assay on Tetranychus urticae is on record as 32 mg/hl. Take `C#CCn1ccc(COC(=O)[C@@H]2[C@H](C=C(Br)Br)C2(C)C)c1C#N` [Example 26]: the “KT 50” value with house flies is 3.5 min. On to `C#CCn1ccc(COC(=O)[C@@H]2[C@H](/C=C\C(=O)OC)C2(C)C)c1` [Example 1, [1-(2-propynyl)-1H-pyrrol-3-yl]-methyl (1R,cisΔZ) 2,2-dimethyl-3-(3-methoxy-3-oxo-1-propenyl)-cyclopropane carboxylate], for which, in the assay on house flies, the “KT 50” value came out at 1.3 min and the knock-down power result is recorded as “particularly remarkable”.

With `C=CCn1cc(COC(=O)[C@@H]2[C@H](C=C(Br)Br)C2(C)C)cc1C#N` (relative stereo) [Example 54, [1-(2-propenyl)-2-cyano-1H-pyrrol-4-yl]methyl (1R,cis) 2,2-dimethyl-3-(2,2-dibromoethenyl)-cyclopropane carboxylate], the “KT 50” value in the assay on house flies is given as 4.7 min. Still for that read-out and setting: for `C#CCn1cc(C(C#C)OC(=O)[C@@H]2[C@H](/C=C(/F)C(=O)OCC)C2(C)C)cc1C#N` (stereo partly drawn) [Example 57, [1-(2-propynyl)-2-cyano-1H-pyrrol-4-yl]-propyn-2-yl (1R,cisΔE) 2,2-dimethyl-3-[2-fluoro-3-ethoxy-3-oxo-1-propenyl]-cyclopropane carboxylate] the value was 4.0 min; for `CCOC(=O)/C(F)=C\[C@H]1[C@@H](C(=O)OCc2cc(C#N)n(C/C=C/Cl)c2)C1(C)C` [Example 66, [2-cyano-1-[3-chloro-2-(E)-propenyl]-1H-pyrrol-4-yl]-methyl (1R,cisΔE) 2,2-dimethyl-3-[2-fluoro-3-ethoxy-3-oxo-1-propenyl]-cyclopropane carboxylate], 7.9 min. For `CCOC(=O)/C(F)=C\[C@H]1[C@@H](C(=O)OCc2cc(C#N)n(C/C=C\Cl)c2)C1(C)C` [Example 65, [2-cyano-[1-(3-chloro-2-(Z)-propenyl]-1H-pyrrol-4-yl]-methyl (1R,cis,ΔE) 2,2-dimethyl-3-(2-fluoro-3-ethoxy-3-oxo-1-propenyl)-cyclopropane carboxylate], in the assay on house flies, the “KT 50” value is recorded as 3.1 min. In the case of `C#CCn1cc(COC(=O)[C@@H]2[C@H](/C=C(/F)C(=O)OCC)C2(C)C)cc1C(F)(F)F` [Example 70, [1-(2-propynyl)-2,2,2-trifluoromethyl-1H-pyrrol-4-yl]-methyl (1R,cis,ΔE) 2,2-dimethyl-3-[2-fluoro-3-ethoxy-3-oxo-1-propenyl]-cyclopropane carboxylate], the “KT 50” value in the assay on house flies was 3.9 min. The “lethal concentration 50 (LC 50)” value in assay [1] is on record as 4.5 mg/m^2. In the assay with Tetranychus urticae, the “LD 50” value came out at 2126 mg/hl.
